Data as given in the supplement of paper PMC4380931.

Experiments:
Assay in all cases: apoptotic fraction of cells (caspase-3 NucView488 positive); higher = more apoptosis
COLO858 = test system: COLO858
Method: (§1)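 BRAF V600E/D melanoma cell lines were seeded in 96-well plates, treated in 4 replicates with seven doses (3.16 nM to 3.16 uM) of RAF/MEK inhibitors for 24, 48 or 72 h, and stained with Hoechst 33342 (nuclei) and DEVD-NucView488 caspase-3 substrate. Plates were imaged on an Operetta. Relative viability is the cell count normalised to a DMSO-treated control; apoptosis fraction is the fraction of NucView488-positive nuclei.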

K2 = test system: K2
Method: as §1

LOXIMVI = test system: LOXIMVI
Method: as §1

MZ7MEL = test system: MZ7MEL
Method: as §1

RVH421 = test system: RVH421
Method: as §1

WM115 = test system: WM115
Method: as §1

WM1552C = test system: WM1552C
Method: as §1

CN(C)CCOc1ccc(-c2nc(-c3ccncc3)c(-c3ccc4c(c3)CC/C4=N\O)[nH]2)cc1
apoptotic fraction of cells
Conditions	0.00316 µM	0.01 µM	0.0316 µM	0.1 µM	0.316 µM	1 µM	3.16 µM
COLO858, 24 h	0.0451	0.0421	0.0423	0.0572	0.0792	0.123	0.13
COLO858, 48 h	0.0512	0.0508	0.0484	0.0742	0.153	0.237	0.341
COLO858, 72 h	0.0855	0.0692	0.0676	0.077	0.141	0.268	0.424
K2, 24 h	0.00595	0.00244	0.00221	0.00264	0.0035	0.0129	0.0372
K2, 48 h	0.00193	0.00284	0.00174	0.00423	0.00888	0.0309	0.0801
LOXIMVI, 24 h	0.0512	0.0389	0.0361	0.0658	0.0417	0.0511	0.0461
LOXIMVI, 48 h	0.143	0.0806	0.0671	0.0471	0.0374	0.0404	0.0453
LOXIMVI, 72 h	0.253	0.188	0.135	0.0607	0.0478	0.0458	0.0628
MZ7MEL, 24 h	0.0126	0.0117	0.0102	0.0118	0.0151	0.0236	0.0357
MZ7MEL, 48 h	0.0138	0.019	0.0145	0.0141	0.0253	0.0408	0.0727
MZ7MEL, 72 h	0.017	0.0127	0.0173	0.0271	0.0568	0.0967	0.143
RVH421, 24 h	0.0543	0.0588	0.0478	0.0495	0.0536	0.062	0.0619
RVH421, 48 h	0.05	0.0534	0.0615	0.0578	0.0567	0.0708	0.0883
RVH421, 72 h	0.0342	0.0346	0.0361	0.044	0.0408	0.0371	0.033
WM115, 24 h	0.0434	0.0337	0.0512	0.0473	0.0461	0.0874	0.0958
WM115, 48 h	0.047	0.0376	0.0402	0.0491	0.0688	0.101	0.131
WM115, 72 h	0.0298	0.031	0.0346	0.0452	0.0689	0.144	0.158
WM1552C, 24 h	0.059	0.05804	0.0561	0.0693	0.0643	0.0626	0.0608
WM1552C, 48 h	0.075	0.0725	0.0713	0.067	0.0576	0.0631	0.0655
WM1552C, 72 h	0.0862	0.0741	0.0679	0.0654	0.0685	0.0776	0.113

Cc1ccc(NC(=O)c2cccc(C(C)(C)C#N)c2)cc1Nc1ccc2ncn(C)c(=O)c2c1 [AZ628]
apoptotic fraction of cells
Conditions	0.00316 µM	0.01 µM	0.0316 µM	0.1 µM	0.316 µM	1 µM	3.16 µM
COLO858, 24 h	0.0485	0.0403	0.0435	0.0728	0.105	0.136	0.171
COLO858, 48 h	0.0518	0.0435	0.0477	0.12	0.221	0.296	0.436
COLO858, 72 h	0.0847	0.0691	0.0679	0.109	0.225	0.381	0.534
K2, 24 h	0.00396	0.003	0.00276	0.00598	0.0287	0.117	0.135
K2, 48 h	0.00258	0.00301	0.00475	0.0219	0.0649	0.254	0.358
LOXIMVI, 24 h	0.0535	0.0347	0.0365	0.0586	0.0296	0.0677	0.0554
LOXIMVI, 48 h	0.0814	0.0536	0.0416	0.0479	0.063	0.118	0.163
LOXIMVI, 72 h	0.139	0.104	0.0405	0.0836	0.117	0.211	0.497
MZ7MEL, 24 h	0.0132	0.0129	0.0104	0.00814	0.0204	0.032	0.0453
MZ7MEL, 48 h	0.0137	0.0171	0.0173	0.0263	0.0421	0.0561	0.0749
MZ7MEL, 72 h	0.0208	0.0145	0.0428	0.156	0.236	0.265	0.293
RVH421, 24 h	0.0557	0.0513	0.04611	0.0493	0.0559	0.0518	0.0578
RVH421, 48 h	0.0503	0.053	0.0555	0.0583	0.0645	0.0779	0.108
RVH421, 72 h	0.0338	0.032	0.038	0.0442	0.0517	0.105	0.165
WM115, 24 h	0.0464	0.0415	0.0535	0.0496	0.0725	0.135	0.202
WM115, 48 h	0.0302	0.0498	0.0357	0.0517	0.139	0.311	0.379
WM115, 72 h	0.0295	0.0285	0.0418	0.159	0.419	0.644	0.82
WM1552C, 24 h	0.0672	0.0724	0.0622	0.0716	0.0799	0.0776	0.104
WM1552C, 48 h	0.0725	0.0688	0.0702	0.0329	0.0464	0.0857	0.108
WM1552C, 72 h	0.0855	0.0732	0.0827	0.0883	0.134	0.153	0.172
